Reference: patent US6900319B2, “Thrombin inhibitors” (Abbott GmbH & Co. KG, priority 1995, dated 2005)

CC(=O)O.N=C(N)c1ccc(CNC(=O)[C@H]2CCCN2C(=O)C(O)C2CCCCC2)cc1 (stereo partly shown) [Example 3, (D)-2-Cyclohexyl-2-hydroxyacetylproline p-amidinobenzylamide Acetate]
melting point: 216 to 218 °C
